According to patent US11555031B2, “Compounds and methods for regulating insulin secretion” (The Broad Institute, Inc., priority 2017, dated 2023):
Entries after “also recorded” stand apart in the source; their conditions may differ.

System: dissociated human islets
Assay: Insulin secretion from dissociated human islets, insulin ELISA
Assay type: cell-based
Procedure: Forskolin is included as a positive control.
Human islets were obtained through the Integrated Islet Distribution Program. Islets were maintained and dissociated in 96-well format as described (Walpita et al., J Biomol Screen 17: 509-518 2012). To test compounds for their effects on insulin secretion, the dissociated islets were washed gently in KRB and preincubated for 1 hr at 37° C. in KRB with 2.8 mM glucose. The cells were then washed twice with zero-glucose KRB and placed in 100 μl of fresh KRB with varied glucose concentrations plus compounds. After a 1 hr incubation at 37° C., the supernatant was removed, and insulin concentration was measured by ELISA (Mercodia) according to the manufacturer's instructions.

## Cc1cccc(NC(=O)c2ccc(OCc3c(C)noc3C)cc2)c1C [Compound 8]
Normal donors
  insulin secretion, human islets from nondiabetic donors: significant increase in glucose-dependent insulin secretion; also recorded: dose-dependent effect
Type 2 diabetes donors
  insulin secretion, human islets from type 2 diabetic donors: significant increase in glucose-dependent insulin secretion; also recorded: increases insulin secretion
